Assay results from publication PMC10817512, “OSMAC-Based Discovery and Biosynthetic Gene Clusters Analysis of Secondary Metabolites from Marine-Derived Streptomyces globisporus SCSIO LCY30” (Marine Drugs, 2023).
In brackets after ≈: the same amount, converted by molar mass. Read-outs that look alike come from different tables or passages of the source.

Columns and labels:
[1] = tested on: Staphylococcus lentus; design: method as in PMID 18396903; settings: ref [35]; cited from earlier work
[2] = tested on: Bacillus subtilis; design: method as in PMID 18396903; settings: ref [35]; cited from earlier work
[3] = tested on: breast cancer cell line MCF7; assay: Cell growth inhibitory (cytotoxic) activity assay; format: cell-based, human; settings: Homo sapiens
Source text: SPSS software version 22.0 was used to test the IC50 values.

[4] = tested on: normal human breast cell line MCF-10A; assay: Cell growth inhibitory (cytotoxic) activity assay; format: cell-based; settings: MCF-10A (normal human breast cell line)
Source text: (§1) The cell growth inhibitory activities of compounds 1–3 against fourteen different human cell lines (human liver cell line LX-2; hepatocellular cancer line HEPG2; human intestinal epithelial cell line NCM460; colorectal cancer cell lines HCT116 and SW480; normal human breast cell line MCF-10A; breast cancer cell line MCF7; triple-negative breast cancer cell lines MDA-MB-231, MDA-MB-468, and Bt-549; human umbilical vein endothelial cell line; lung cancer cell line A549; cervical cancer cell line Hela; and cholangiocarcinoma cell line RBE) were tested according to the previously published methods. SPSS software version 22.0 was used to test the IC50 values. Cisplatin and adriamycin were used as positive control agents, and all the experiments were carried out in triplicate.

[5] = tested on: human intestinal epithelial cell line NCM460; assay: Cell growth inhibitory (cytotoxic) activity assay; format: cell-based; settings: Homo sapiens; NCM460 (normal intestinal epithelial cell line)
Source text: as §1

[6] = tested on: human umbilical vein endothelial cell line HUVEC; assay: Cell growth inhibitory (cytotoxic) activity assay; format: cell-based
Source text: as §1

[7] = tested on: human liver cell line LX-2; assay: Cell growth inhibitory (cytotoxic) activity assay; format: cell-based; settings: LX-2 (human liver cell line)
Source text: as §1

[8] = tested on: Staphylococcus simulans AKA1; assay: Antibacterial MIC, CLSI microdilution; format: cell-based; settings: Staphylococcus simulans AKA1; 37 °C, 16–18 h; read-out: MIC
[9] = tested on: fourteen human cell lines; assay: Cytotoxicity, span over the whole cell panel; format: cell-based; settings: span of the IC50 values over all fourteen cell lines, read-out: IC50 values, range against fourteen human cell lines
Source text: as §1

[10] = tested on: MRSA; assay: Antibacterial MIC, CLSI microdilution; format: cell-based, Staphylococcus aureus; settings: Staphylococcus aureus, 37 °C, 16–18 h, read-out: MIC
Protocol: (§2) An antibacterial activity test of compounds 1–3 was conducted according to a standard protocol provided by the Clinical and Laboratory Standards Institute (CLSI). Sixteen bacterial strains were used, including Staphylococcus aureus ATCC 29213, Staphylococcus aureus 16339, Staphylococcus aureus 1862, Staphylococcus aureus 3090, Staphylococcus aureus 991, Staphylococcus aureus 669, Staphylococcus aureus 745324, Staphylococcus aureus 16162, Staphylococcus aureus (cfr) GDE4P037P, Enterococcus faecalis ATCC 29212, Enterococcus faecalis 36950, Micrococcus luteus ML01, MRSA, Bacillus subtilis BS01, Enterococcus gallinarum 5F52C, and Enterococcus faecium 36711. Compounds 1–3 were dissolved in DMSO at a concentration of 3.2 mg/mL, and vancomycin and ampicilin were used as antibacterial control agents. […] All the assays were carried out in triplicate.

[11] = tested on: TNBC cell lines MDA-MB-231, MDA-MB-468, and Bt-549; assay: Cytotoxicity, span over TNBC cell lines; format: cell-based; settings: Homo sapiens; span over MDA-MB-231, MDA-MB-468 and Bt-549; read-out: IC50 values, range against TNBC cell lines
Source text: as §1

[12] = tested on: cholangiocarcinoma cell line RBE; assay: Cell growth inhibitory (cytotoxic) activity assay; format: cell-based, human; settings: Homo sapiens
Source text: as §1

[13] = tested on: triple-negative breast cancer cell line Bt-549; assay: Cell growth inhibitory (cytotoxic) activity assay; format: cell-based, human; settings: Homo sapiens; Bt-549 (TNBC)
Source text: as §1

[14] = tested on: colorectal cancer cell line HCT116; assay: Cell growth inhibitory (cytotoxic) activity assay; format: cell-based, human; settings: Homo sapiens, HCT-116
Source text: as §1

[15] = tested on: cervical cancer cell line Hela; assay: Cell growth inhibitory (cytotoxic) activity assay; format: cell-based, human; settings: Homo sapiens
Source text: as §1

[16] = tested on: triple-negative breast cancer cell line MDA-MB-468; assay: Cell growth inhibitory (cytotoxic) activity assay; format: cell-based, human; settings: Homo sapiens; MDA-MB-468 (TNBC)
Source text: as §1

[17] = tested on: colorectal cancer cell line SW480; assay: Cell growth inhibitory (cytotoxic) activity assay; format: cell-based, human; settings: for IC50: Homo sapiens, SW480 (colorectal cancer)
Source text: as §1

[18] = tested on: triple-negative breast cancer cell line MDA-MB-231; assay: Cell growth inhibitory (cytotoxic) activity assay; format: cell-based, human; settings: Homo sapiens; MDA-MB-231 (TNBC)
Source text: as §1

[19] = tested on: hepatocellular cancer line HEPG2; assay: Cell growth inhibitory (cytotoxic) activity assay; format: cell-based, human; settings: Homo sapiens
Source text: as §1

[20] = tested on: lung cancer cell line A549; assay: Cell growth inhibitory (cytotoxic) activity assay; format: cell-based, human; settings: Homo sapiens
Source text: as §1

[21] = tested on: Staphylococcus aureus (cfr) GDE4P037P; assay: Antibacterial MIC, CLSI microdilution; format: cell-based; settings: Staphylococcus aureus (cfr) GDE4P037P; 37 °C, 16–18 h; read-out: MIC
Protocol: as §2

[22] = tested on: Staphylococcus aureus 16339; assay: Antibacterial MIC, CLSI microdilution; format: cell-based; settings: Staphylococcus aureus 16339; 37 °C, 16–18 h; read-out: MIC
Protocol: as §2

[23] = tested on: Staphylococcus aureus 16162; assay: Antibacterial MIC, CLSI microdilution; format: cell-based; settings: Staphylococcus aureus 16162; 37 °C, 16–18 h; read-out: MIC
Protocol: as §2

[24] = tested on: Staphylococcus aureus 991; assay: Antibacterial MIC, CLSI microdilution; format: cell-based; settings: Staphylococcus aureus 991; 37 °C, 16–18 h; read-out: MIC
Protocol: as §2

[25] = tested on: Enterococcus faecalis ATCC 29212; assay: Antibacterial MIC, CLSI microdilution; format: cell-based; settings: ATCC29212; Enterococcus faecalis ATCC 29212; 37 °C, 16–18 h; read-out: MIC
Protocol: as §2

[26] = tested on: Enterococcus gallinarum 5F52C; assay: Antibacterial MIC, CLSI microdilution; format: cell-based; settings: Enterococcus gallinarum 5F52C; 37 °C, 16–18 h; read-out: MIC
Protocol: as §2

[27] = tested on: Staphylococcus aureus 1862; assay: Antibacterial MIC, CLSI microdilution; format: cell-based; settings: Staphylococcus aureus 1862; 37 °C, 16–18 h; read-out: MIC
Protocol: as §2

[28] = tested on: Enterococcus faecalis 36950; assay: Antibacterial MIC, CLSI microdilution; format: cell-based; settings: Enterococcus faecalis 36950; 37 °C, 16–18 h; read-out: MIC
Protocol: as §2

[29] = tested on: Staphylococcus aureus ATCC 29213; assay: Antibacterial MIC, CLSI microdilution; format: cell-based; settings: ATCC29213; Staphylococcus aureus ATCC 29213; 37 °C, 16–18 h; read-out: MIC
Protocol: as §2

[30] = tested on: Enterococcus faecium 36711; assay: Antibacterial MIC, CLSI microdilution; format: cell-based; settings: Enterococcus faecium 36711; 37 °C, 16–18 h; read-out: MIC
Protocol: as §2

[31] = tested on: Bacillus subtilis BS01; assay: Antibacterial MIC, CLSI microdilution; format: cell-based; settings: Bacillus subtilis BS01; 37 °C, 16–18 h; read-out: MIC
Protocol: as §2

[32] = tested on: Micrococcus luteus ML01; assay: Antibacterial MIC, CLSI microdilution; format: cell-based; settings: 37 °C, 16–18 h
Protocol: as §2

[33] = tested on: Staphylococcus aureus 745324; assay: Antibacterial MIC, CLSI microdilution; format: cell-based; settings: Staphylococcus aureus 745324; 37 °C, 16–18 h; read-out: MIC
Protocol: as §2

[34] = tested on: Staphylococcus aureus 669; assay: Antibacterial MIC, CLSI microdilution; format: cell-based; settings: Staphylococcus aureus 669; 37 °C, 16–18 h; read-out: MIC
Protocol: as §2

[35] = tested on: Staphylococcus aureus 3090; assay: Antibacterial MIC, CLSI microdilution; format: cell-based; settings: Staphylococcus aureus 3090; 37 °C, 16–18 h; read-out: MIC
Protocol: as §2

[36] = tested on: methicillin-resistant Staphylococcus aureus; design: method as in PMID 27097765; settings: ref [24]; cited from earlier work
[37] = Micrococcus luteus, ML01, Micrococcus luteus ML01, read-out: MIC

Compound | IC50 [3] | IC50 [4] | IC50 [5] | IC50 [6] | IC50 [7] | MIC [8] | IC50 [9] | MIC [10] | IC50 [11] | IC50 [12] | IC50 [13] | IC50 [14] | IC50 [15] | IC50 [16] | IC50 [17] | IC50 [18] | IC50 [19] | IC50 [20] | MIC [21] | MIC [22] | further results
streptophenazine C |  |  |  |  |  |  |  |  |  |  |  |  |  |  |  |  |  |  |  |  | MIC [1]: 46.9 µg/mL; MIC [2]: 15.6 µg/mL
Cc1cc(O)c2c3c(c(O)c(C4CC(N)C(O)C(C)O4)c2c1)C(=O)c1c(O)cccc1C3=O (stereo not drawn) [Mayamycin B (2), mayamycin B] | 4.15 µM | 5.21 µM | 7.16 µM | 4.41 µM | 5.33 µM | 64 µg/mL (≈ 142 µM) | 2.05 to 7.16 µM | 8 µg/mL (≈ 17.8 µM) | 3.01 to 6.08 µM | 4.06 µM | 3.87 µM | 2.05 µM | 2.8 µM | 6.08 µM | 2.87 µM | 3.01 µM | 6 µM | 5.08 µM | 8 µg/mL (≈ 17.8 µM) | 16 µg/mL (≈ 35.6 µM) | MIC [23]: 16 µg/mL (≈ 35.6 µM); MIC [24]: 16 µg/mL (≈ 35.6 µM); MIC [25]: 16 µg/mL (≈ 35.6 µM); MIC [26]: 32 µg/mL (≈ 71.2 µM); MIC [27]: 16 µg/mL (≈ 35.6 µM); MIC [28]: 8 µg/mL (≈ 17.8 µM); MIC [29]: 16 µg/mL (≈ 35.6 µM); MIC [30]: 32 µg/mL (≈ 71.2 µM); MIC [31]: 8 µg/mL (≈ 17.8 µM); MIC ([32]; Micrococcus luteus ML01): 1 µg/mL (≈ 2.22 µM); MIC [32, 37]: 1 to 2 µg/mL (≈ 2.22 to 4.45 µM); MIC [33]: 8 µg/mL (≈ 17.8 µM); MIC [34]: 16 µg/mL (≈ 35.6 µM); MIC [35]: 8 µg/mL (≈ 17.8 µM)
C[C@]1(O)CC(=O)c2c(cc(O)c3c2C(=O)c2cccc(O)c2C3=O)C1 [Rabelomycin (3), rabelomycin] | 4.48 µM | 11.3 µM | 7.05 µM | 10.9 µM | 13.4 µM | 16 µg/mL (≈ 47.3 µM) | 1.57 to 16.1 µM | 8 µg/mL (≈ 23.6 µM) | 2.18 to 8.67 µM | 4.23 µM | 7.85 µM | 4.72 µM | 16.1 µM | 2.18 µM | 1.57 µM | 8.67 µM | 8.64 µM | 5.97 µM | 4 µg/mL (≈ 11.8 µM) | 8 µg/mL (≈ 23.6 µM) | selective index (SI) ([17]; SW480 versus normal intestinal epithelial cell line NCM460): 4.49; MIC [23]: 8 µg/mL (≈ 23.6 µM); MIC [24]: 16 µg/mL (≈ 47.3 µM); MIC [25]: 8 µg/mL (≈ 23.6 µM); MIC [26]: 32 µg/mL (≈ 94.6 µM); MIC [27]: 8 µg/mL (≈ 23.6 µM); MIC [28]: 8 µg/mL (≈ 23.6 µM); MIC [29]: 8 µg/mL (≈ 23.6 µM); MIC [30]: 32 µg/mL (≈ 94.6 µM); MIC [31]: 4 µg/mL (≈ 11.8 µM); MIC ([32]; Micrococcus luteus ML01): 2 µg/mL (≈ 5.91 µM); MIC [32, 37]: 1 to 2 µg/mL (≈ 2.96 to 5.91 µM); MIC [33]: 8 µg/mL (≈ 23.6 µM); MIC [34]: 16 µg/mL (≈ 47.3 µM); MIC [35]: 8 µg/mL (≈ 23.6 µM)
(-)-Streptophenazine B |  |  |  |  |  |  |  |  |  |  |  |  |  |  |  |  |  |  |  |  | MIC [36]: 4.2 µg/mL
